Values quoted from earlier work as cited in US12633379B2, “Visible neural network framework” (priority 2020, dated 2026).

Tested on: 39 human cancer cell lines
[1] = across the majority of cell lines tested in DeepSynergy, partners in FIG. 5F: MK2206, PD325901

COc1cc([C@@H]2c3cc4c(cc3[C@@H](O[C@@H]3O[C@@H]5CO[C@@H](C)O[C@H]5[C@H](O)[C@H]3O)[C@H]3COC(=O)[C@H]23)OCO4)cc(OC)c1O [etoposide]
Loewe synergy in combination with AKT inhibition [1]: synergized strongly
Loewe synergy in combination with MEK inhibition [1]: synergized strongly
Loewe synergy in combination with bortezomib (combined with the proteasome inhibitor bortezomib, DeepSynergy cell line panel, FIG. 12A, FIG. 5F): did not synergize
